According to US12391686B2, “Compounds and uses thereof” (Foghorn Therapeutics Inc., priority 2019, dated 2025):

How the values were obtained:
[1] = target: T1, Nanoluciferase-BRD9 fusion protein (3×FLAG-NLuc-BRD9) in SYO-1 cells (Homo sapiens, UniProt Q9H8M2); test: SYO1 BRD9 NanoLuc Degradation Assay; format: cell-based; conditions: 6 hours; SYO-1 cells expressing 3×FLAG-NLuc-BRD9; top dose 1 μM; read-out: SYO1 BRD9-NanoLuc degradation IC50
T1 construct: expressed in transfected cells; host or cells: SYO-1
T1 sequence (Q9H8M2 1-597): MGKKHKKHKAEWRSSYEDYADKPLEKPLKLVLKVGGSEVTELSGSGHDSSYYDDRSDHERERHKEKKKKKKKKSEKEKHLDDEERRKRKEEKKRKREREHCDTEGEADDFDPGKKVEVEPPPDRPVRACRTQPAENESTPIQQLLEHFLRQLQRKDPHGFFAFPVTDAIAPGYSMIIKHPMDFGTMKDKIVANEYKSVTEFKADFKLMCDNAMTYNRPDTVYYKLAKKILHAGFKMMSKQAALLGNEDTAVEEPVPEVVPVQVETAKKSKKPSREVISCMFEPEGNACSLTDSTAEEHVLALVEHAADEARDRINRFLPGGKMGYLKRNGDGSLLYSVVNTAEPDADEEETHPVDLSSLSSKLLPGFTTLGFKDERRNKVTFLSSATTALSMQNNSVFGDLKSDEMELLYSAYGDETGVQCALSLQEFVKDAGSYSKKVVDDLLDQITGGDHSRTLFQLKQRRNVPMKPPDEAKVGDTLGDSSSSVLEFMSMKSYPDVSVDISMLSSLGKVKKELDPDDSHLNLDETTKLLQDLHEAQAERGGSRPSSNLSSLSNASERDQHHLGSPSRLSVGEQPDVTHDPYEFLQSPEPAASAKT
Summary of the method: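 Stable 3×FLAG-NLuc-BRD9 SYO-1 line, 8000 cells/well, dosed day 1 with 10-point 3-fold dilutions (1 μM final top, duplicates) for 6 h. NanoLuc bioluminescence read with Nano-Glo; % inhibition relative to DMSO (high) and 1 μM reference BRD9 degrader (low) controls.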

[2] = target: T2, BRD9 bromodomain (Flag-BRD9 P133-K239; Swiss Prot Q9H8M2) (Homo sapiens, UniProt Q9H8M2); test: BRD9 Bromodomain TR-FRET Competition Binding Assay; conditions: competition with biotinylated BRD9 ligand; 90 minutes at room temperature
T2 construct: His-Flag-BRD9 (P133-K239); Swiss Prot Q9H8M2; His6 with TEV site (mgsshhhhhhenlyfq/) (N, cleaved yes); made in house
T2 sequence (Q9H8M2 133-239): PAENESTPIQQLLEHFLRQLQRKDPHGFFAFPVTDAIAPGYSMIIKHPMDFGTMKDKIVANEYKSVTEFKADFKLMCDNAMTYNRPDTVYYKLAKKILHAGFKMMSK
Description: Procedure: His-Flag-BRD9 (P133-K239; Swiss Prot Q9H8M2; SEQ ID NO:1 mgsshhhhhhenlyfq/gdykddddkgslevlfqg/[…] […]) was cloned, expressed, purified, and then treated with TEV protease. Cleaved His tag was removed by purification. The binding of a biotinylated small molecule ligand of BRD9 was assessed via the LANCE® TR-FRET platform (PerkinElmer), and the compounds were assayed for inhibitory activity against this interaction.
Results: A mixture of biotinylated-ligand and SureLight™ Allophycocyanin-Streptavidin (APC-SA, PerkinElmer AD0201) in 50 mM HEPES (pH 7.4), 50 mM NaCl, 1 mM TCEP (pH 7), 0.01% (v/v) Tween-20, 0.01% (w/v) bovine serum albumin was added to a white 384-well PerkinElmer Proxiplate Plus plate. DMSO or 3-fold serially diluted compounds were then added to the Proxiplate followed by addition of Flag-BRD9. After a 10-minute incubation at room temperature, Eu-W1024 anti-FLAG (PerkinElmer, AD0273) was added. The final reaction mixture that contained 3.75 nM biotinylated ligand, 3 nM Flag-BRD9, 7.5 nM SureLight™ Allophycocyanin-Streptavidin, and 0.2 nM Eu-W1024 anti-FLAG was incubated at room temperature for 90 minutes.
The plates were then read on a PerkinElmer Envision plate reader to determine the ratio of emission at 665 nm over 615 nm. […]

Row | DC50 [1] | IC50 [2] | Compound
1 | ≥ 100 nM | ≥ 10 nM | COc1cc(-c2cn(C)c(=O)c3cnc(NCCCCCCCCNC(=O)COc4cccc5c4C(=O)N(C4CCC(=O)NC4=O)C5=O)cc23)cc(OC)c1CN(C)C (stereo not shown) [Compound D5, N-[8-[(5-[4-[(dimethylamino)methyl]-3,5-dimethoxyphenyl]-7-methyl-8-oxo-2,7-naphthyridin-3-yl)amino]octyl]-2-[[2-(2,6-dioxopiperidin-3-yl)-1,3-dioxoisoindol-4-yl]oxy]acetamide formic acid]
2 | ≥ 10 nM | ≥ 10 nM | COc1cc(-c2cn(C)c(=O)c3cnc(NCCCCCOc4cccc5c4C(=O)N(C4CCC(=O)NC4=O)C5=O)cc23)c(OC)cc1CN(C)C (stereo not shown) [Compound D6, 4-((5-((5-(4-((dimethylamino)methyl)-2,5-dimethoxyphenyl)-7-methyl-8-oxo-7,8-dihydro-2,7-naphthyridin-3-yl)amino)pentyl)oxy)-2-(2,6-dioxopiperidin-3-yl)isoindoline-1,3-dione formic acid]
3 | < 10 nM | < 10 nM | CNc1cc2c(=O)n(C)cc(-c3cc(OC)c(CN4CC(C(=O)NCCCCCOc5cccc6c5C(=O)N(C5CCC(=O)NC5=O)C6=O)C4)c(OC)c3)c2cn1 (stereo not shown) [Compound D7, 1-([2,6-dimethoxy-4-[2-methyl-7-(methylamino)-1-oxo-2,6-naphthyridin-4-yl]phenyl]methyl)-N-(5-[[2-(2,6-dioxopiperidin-3-yl)-1,3-dioxoisoindol-4-yl]oxy]pentyl)azetidine-3-carboxamide formic acid]
4 | ≥ 10 nM | ≥ 10 nM | COc1cc(-c2cn(C)c(=O)c3cc(NCCCCCCCCNC(=O)COc4cccc5c4C(=O)N(C4CCC(=O)NC4=O)C5=O)ncc23)cc(OC)c1CN(C)C (stereo not shown) [Compound D8, N-[8-[(8-[4-[(dimethylamino)methyl]-3,5-dimethoxyphenyl]-6-methyl-5-oxo-2,6-naphthyridin-3-yl)amino]octyl]-2-[[2-(2,6-dioxopiperidin-3-yl)-1,3-dioxoisoindol-4-yl]oxy]acetamide]
5 | ≥ 1000 nM | ≥ 100 nM | COc1cc(-c2cn(C)c(=O)c3cc(NC(=O)CCOCCOCCNc4cccc5c4C(=O)N(C4CCC(=O)NC4=O)C5=O)ncc23)cc(OC)c1CN(C)C (stereo not shown) [Compound D9, N-(8-[4-[(dimethylamino)methyl]-3,5-dimethoxyphenyl]-6-methyl-5-oxo-2,6-naphthyridin-3-yl)-3-[2-(2-[[2-(2,6-dioxopiperidin-3-yl)-1,3-dioxoisoindol-4-yl]amino]ethoxy)ethoxy]propanamide]
6 | ≥ 10 nM | ≥ 10 nM | COc1cc(-c2cn(C)c(=O)c3cnc(NCCOCCOCCNc4cccc5c4C(=O)N(C4CCC(=O)NC4=O)C5=O)cc23)cc(OC)c1CN(C)C (stereo not shown) [Compound D10, 4-[[2-(2-[2-[(5-[4-[(dimethylamino)methyl]-3,5-dimethoxyphenyl]-7-methyl-8-oxo-2,7-naphthyridin-3-yl)amino]ethoxy]ethoxy)ethyl]amino]-2-(2,6-dioxopiperidin-3-yl)isoindole-1,3-dione formic acid]
7 | ≥ 100 nM | ≥ 10 nM | COc1cc(-c2cn(C)c(=O)c3cnc(NC(=O)CCOCCOCCNc4cccc5c4C(=O)N(C4CCC(=O)NC4=O)C5=O)cc23)cc(OC)c1CN(C)C (stereo not shown) [Compound D11, N-(5-(4-((dimethylamino)methyl)-3,5-dimethoxyphenyl)-7-methyl-8-oxo-7,8-dihydro-2,7-naphthyridin-3-yl)-3-(2-(2-((2-(2,6-dioxopiperidin-3-yl)-1,3-dioxoisoindolin-4-yl)amino)ethoxy)ethoxy)propanamide formic acid]
8 | ≥ 10 nM | < 10 nM | COc1cc(-c2cn(C)c(=O)c3cc(N(C)CC(=O)NCCCCCOc4cccc5c4C(=O)N(C4CCC(=O)NC4=O)C5=O)ncc23)cc(OC)c1CN(C)C (stereo not shown) [Compound D12, 2-[(8-[4-[(dimethylamino)methyl]-3,5-dimethoxyphenyl]-6-methyl-5-oxo-2,6-naphthyridin-3-yl)(methyl)amino]-N-(5-[[2-(2,6-dioxopiperidin-3-yl)-1,3-dioxoisoindol-4-yl]oxy]pentyl)acetamide formic acid]
9 | ≥ 1000 nM | ≥ 100 nM | COc1cc(-c2cn(C)c(=O)c3cc(NC(=O)CCOCCOCCNc4ccc5c(c4)C(=O)N(C4CCC(=O)NC4=O)C5=O)ncc23)cc(OC)c1CN(C)C (stereo not shown) [Compound D13, N-(8-[4-[(dimethylamino)methyl]-3,5-dimethoxyphenyl]-6-methyl-5-oxo-2,6-naphthyridin-3-yl)-3-[2-(2-[[2-(2,6-dioxopiperidin-3-yl)-1,3-dioxoisoindol-5-yl]amino]ethoxy)ethoxy]propanamide formic acid]
10 | ≥ 100 nM | ≥ 10 nM | COc1cc(-c2cn(C)c(=O)c3cnc(NC(=O)CCOCCOCCNc4ccc5c(c4)C(=O)N(C4CCC(=O)NC4=O)C5=O)cc23)cc(OC)c1CN(C)C (stereo not shown) [Compound D14, N-(5-(4-((dimethylamino)methyl)-3,5-dimethoxyphenyl)-7-methyl-8-oxo-7,8-dihydro-2,7-naphthyridin-3-yl)-3-(2-(2-((2-(2,6-dioxopiperidin-3-yl)-1,3-dioxoisoindolin-5-yl)amino)ethoxy)ethoxy)propanamide formic acid]
11 | < 10 nM | < 10 nM | CNc1cc2c(=O)n(C)cc(-c3cc(OC)c(CN4CCC5(CC4)CN(C(=O)CCCCOc4cccc6c4C(=O)N(C4CCC(=O)NC4=O)C6=O)CCO5)c(OC)c3)c2cn1 (stereo not shown) [Compound D15, 4-([5-[9-([2,6-dimethoxy-4-[2-methyl-7-(methylamino)-1-oxo-2,6-naphthyridin-4-yl]phenyl]methyl)-1-oxa-4,9-diazaspiro[5.5]undecan-4-yl]-5-oxopentyl]oxy)-2-(2,6-dioxopiperidin-3-yl)isoindole-1,3-dione formic acid]

Row | Compound | DC50 [1] | IC50 [2]
12 | CNc1cc2c(=O)n(C)cc(-c3cc(OC)c(CN4CCC5(CC4)CN(C(=O)CCCOc4cccc6c4C(=O)N(C4CCC(=O)NC4=O)C6=O)CCO5)c(OC)c3)c2cn1 (stereo not shown) [Compound D16, 4-(4-(9-(2,6-dimethoxy-4-(2-methyl-7-(methylamino)-1-oxo-1,2-dihydro-2,6-naphthyridin-4-yl)benzyl)-1-oxa-4,9-diazaspiro[5.5]undecan-4-yl)-4-oxobutoxy)-2-(2,6-dioxopiperidin-3-yl)isoindoline-1,3-dione formic acid] | < 10 nM | < 10 nM
13 | CNc1cc2c(=O)n(C)cc(-c3cc(OC)c(CN4CCN(C(=O)CCCOc5cccc6c5C(=O)N(C5CCC(=O)NC5=O)C6=O)CC4)c(OC)c3)c2cn1 (stereo not shown) [Compound D17, 4-(4-(4-(2,6-dimethoxy-4-(2-methyl-7-(methylamino)-1-oxo-1,2-dihydro-2,6-naphthyridin-4-yl)benzyl)piperazin-1-yl)-4-oxobutoxy)-2-(2,6-dioxopiperidin-3-yl)isoindoline-1,3-dione formic acid] | < 10 nM | ≥ 10 nM
14 | COc1cc(-c2cn(C)c(=O)c3cnc(N(C)C)cc23)cc(OC)c1CN1CCC2(CC1)CN(C(=O)CCCOc1cccc3c1C(=O)N(C1CCC(=O)NC1=O)C3=O)CCO2 (stereo not shown) [Compound D18, 4-(4-(9-(4-(6-(dimethylamino)-2-methyl-1-oxo-1,2-dihydro-2,7-naphthyridin-4-yl)-2,6-dimethoxybenzyl)-1-oxa-4,9-diazaspiro[5.5]undecan-4-yl)-4-oxobutoxy)-2-(2,6-dioxopiperidin-3-yl)isoindoline-1,3-dione formic acid] | < 10 nM | < 10 nM
